According to publication PMC4467398, “Preclinical antitumor activity of ST7612AA1: a new oral thiol-based histone deacetylase (HDAC) inhibitor” (Oncotarget, 2014):

Tested on: DOHH2 and TMD8 DLBCL cells
Test: Gene expression profiling (HumanHT-12 v4 BeadChip, limma), ST7612AA1 300 nM 8 hrs vs DMSO
Type: cell-based, human
Settings: 300 nM 8 hrs

CC(=O)SCCCCC[C@H](NC(=O)[C@H]1CCC(=O)N1)C(=O)Nc1ccccc1 [ST7612AA1]
AveExpr.ST7612 1999-08-31 (probe ILMN_1659953): 8.50E-01
AveExpr.ST7612 (probe ILMN_1816244): 7.08E-01
AveExpr.ST7612 (probe ILMN_1827736): 8.76E-01
AveExpr.ST7612 (probe ILMN_1909886): 7.98E-01
AveExpr.ST7612 ABCA7 (probe ILMN_1743205): 7.64E-01
AveExpr.ST7612 ADARB1 (probe ILMN_1679797): 7.60E-01
AveExpr.ST7612 ALDH2 (probe ILMN_1793859): 8.03E-01
AveExpr.ST7612 ALOX5 (probe ILMN_1680996): 8.46E-01
AveExpr.ST7612 AMOT (probe ILMN_1792409): 7.65E-01
AveExpr.ST7612 APAF1 (probe ILMN_1659463): 8.78E-01
AveExpr.ST7612 APLP1 (probe ILMN_1763834): 8.17E-01
AveExpr.ST7612 ARL6IP1 (probe ILMN_1708416): 6.93E-01
AveExpr.ST7612 ATG2A (probe ILMN_1756006): 8.92E-01
AveExpr.ST7612 ATP6V0C (probe ILMN_1773849): 8.22E-01
AveExpr.ST7612 ATP6V1G2 (probe ILMN_1654541): 8.47E-01
AveExpr.ST7612 ATP7B (probe ILMN_1722056): 8.88E-01
AveExpr.ST7612 AVPI1 (probe ILMN_1671731): 8.94E-01
AveExpr.ST7612 AZI1 (probe ILMN_1746206): 7.59E-01
AveExpr.ST7612 BIK (probe ILMN_1770505): 7.57E-01
AveExpr.ST7612 BLVRB (probe ILMN_1797793): 8.74E-01
AveExpr.ST7612 BNIP3L (probe ILMN_1718961): 8.34E-01
AveExpr.ST7612 BPHL (probe ILMN_1657746): 8.91E-01
AveExpr.ST7612 C3orf34 (probe ILMN_1665217): 6.96E-01
AveExpr.ST7612 C4orf32 (probe ILMN_1700257): 8.83E-01
AveExpr.ST7612 C12orf52 (probe ILMN_1667857): 6.98E-01
AveExpr.ST7612 C13orf15 (probe ILMN_1658494): 7.74E-01
AveExpr.ST7612 C14orf173 (probe ILMN_2393450): 7.70E-01
AveExpr.ST7612 C14orf179 (probe ILMN_1756877): 7.81E-01
AveExpr.ST7612 CA2 (probe ILMN_2199439): 7.93E-01
AveExpr.ST7612 CAMLG (probe ILMN_1714599): 7.30E-01
AveExpr.ST7612 CASC4 (probe ILMN_2325574): 6.85E-01
AveExpr.ST7612 CBX7 (probe ILMN_1657361): 7.49E-01
AveExpr.ST7612 CCDC24 (probe ILMN_1718771): 6.89E-01
AveExpr.ST7612 CCDC92 (probe ILMN_1731107): 8.05E-01
AveExpr.ST7612 CD74 (probe ILMN_1761464): 8.47E-01
AveExpr.ST7612 CD74 (probe ILMN_2379644): 7.27E-01
AveExpr.ST7612 CDC2L6 (probe ILMN_1676891): 6.96E-01
AveExpr.ST7612 CDC42EP5 (probe ILMN_1774982): 8.75E-01
AveExpr.ST7612 CDK2AP2 (probe ILMN_1690653): 8.01E-01
AveExpr.ST7612 CECR1 (probe ILMN_1751851): 8.43E-01
AveExpr.ST7612 CLCC1 (probe ILMN_1671933): 8.48E-01
AveExpr.ST7612 CLIC4 (probe ILMN_2063586): 7.49E-01
AveExpr.ST7612 CMTM8 (probe ILMN_1710124): 7.00E-01
AveExpr.ST7612 COTL1 (probe ILMN_1788283): 6.87E-01
AveExpr.ST7612 CRIP1 (probe ILMN_1656920): 8.56E-01
AveExpr.ST7612 CRYM (probe ILMN_1779241): 8.32E-01
AveExpr.ST7612 CSRP1 (probe ILMN_1811921): 7.01E-01
AveExpr.ST7612 CSTB (probe ILMN_1761797): 8.06E-01
AveExpr.ST7612 CTSB (probe ILMN_2359742): 8.56E-01
AveExpr.ST7612 CXADR (probe ILMN_1796925): 8.18E-01
AveExpr.ST7612 CXorf57 (probe ILMN_1703279): 8.25E-01
AveExpr.ST7612 CYB5R1 (probe ILMN_1729237): 7.59E-01
AveExpr.ST7612 CYB5R3 (probe ILMN_1740441): 7.06E-01
AveExpr.ST7612 CYP2R1 (probe ILMN_2119774): 7.88E-01
AveExpr.ST7612 DEF8 (probe ILMN_1767509): 8.37E-01
AveExpr.ST7612 DGCR6L (probe ILMN_3245688): 7.47E-01
AveExpr.ST7612 DNMT3B (probe ILMN_1794692): 8.14E-01
AveExpr.ST7612 DSTN (probe ILMN_1706426): 7.52E-01
AveExpr.ST7612 DYNC1H1 (probe ILMN_1780302): 6.97E-01
AveExpr.ST7612 DYNLL2 (probe ILMN_1772796): 8.61E-01
AveExpr.ST7612 DYRK3 (probe ILMN_2400322): 6.97E-01
AveExpr.ST7612 DYRK3 (probe ILMN_2400326): 8.26E-01
AveExpr.ST7612 ECHS1 (probe ILMN_1718132): 7.78E-01
AveExpr.ST7612 EGR1 (probe ILMN_1762899): 8.42E-01
AveExpr.ST7612 ELOF1 (probe ILMN_1723185): 7.14E-01
AveExpr.ST7612 ENC1 (probe ILMN_1779147): 7.93E-01
AveExpr.ST7612 ENO2 (probe ILMN_1765796): 7.11E-01
AveExpr.ST7612 ERRFI1 (probe ILMN_1665510): 7.44E-01
AveExpr.ST7612 ESAM (probe ILMN_1668092): 7.54E-01
AveExpr.ST7612 F11R (probe ILMN_2342033): 8.81E-01
AveExpr.ST7612 FAM65A (probe ILMN_1680037): 7.70E-01
AveExpr.ST7612 FAM116B (probe ILMN_1659029): 7.74E-01
AveExpr.ST7612 FAM120B (probe ILMN_1679641): 7.62E-01
AveExpr.ST7612 FAM149B1 (probe ILMN_3245452): 7.21E-01
